Laboratory results reported in patent US20230159532A1, “PARATHYROID HORMONE (PTH) RECEPTOR ANTAGONISTS AND USES THEREOF” (Crinetics Pharmaceuticals, Inc., priority 2021, published 2023).

target: T1, human PTHR1 receptor (Homo sapiens, UniProt Q03431); test: Competitive antagonist binding assay for hPTH-R1 (radioactive competition binding, SPA beads); conditions: human PTHR1 membranes, [125I]-[Nle8,18,Tyr34]-PTH(1-34) 0.2 nM, 90 minutes at room temperature; read-out: hPTHR1 Ki
T1 construct: purchased Eurofins HTS030M
T1 sequence (Q03431 27-593): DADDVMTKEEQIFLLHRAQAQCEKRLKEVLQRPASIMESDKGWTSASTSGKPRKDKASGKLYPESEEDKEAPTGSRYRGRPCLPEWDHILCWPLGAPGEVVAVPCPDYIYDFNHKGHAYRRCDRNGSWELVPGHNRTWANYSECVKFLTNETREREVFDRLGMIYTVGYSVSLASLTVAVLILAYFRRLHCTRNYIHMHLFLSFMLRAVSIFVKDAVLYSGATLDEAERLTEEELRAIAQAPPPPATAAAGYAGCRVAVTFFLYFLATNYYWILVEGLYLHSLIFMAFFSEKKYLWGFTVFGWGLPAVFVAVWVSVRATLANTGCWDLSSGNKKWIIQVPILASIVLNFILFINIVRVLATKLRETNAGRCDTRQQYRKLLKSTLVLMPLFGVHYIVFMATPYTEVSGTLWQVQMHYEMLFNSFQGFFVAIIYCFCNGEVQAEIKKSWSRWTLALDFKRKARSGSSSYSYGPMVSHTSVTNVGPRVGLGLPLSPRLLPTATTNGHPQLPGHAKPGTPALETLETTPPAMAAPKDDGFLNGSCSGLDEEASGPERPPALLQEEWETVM
How it was run: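 Displacement of 0.2 nM radioiodinated [Nle8,18,Tyr34]-PTH(1-34) from membrane-bound human PTHR1 measured by scintillation proximity after 90 min at room temperature. Compounds typically 0-10,000 nM final, pH 7.4 HEPES/Mg/Ca buffer with BSA and detergent. Ki calculated from competition data.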

| Ki [nM] | Compound |
| --- | --- |
| < 100 | CCN1C(=O)N(c2c(F)cc(NCCNC)cc2F)c2ccccc2-c2cc(Cl)cnc21 [1-135, 4-chloro-10-(2,6-difluoro-4-{[2-(methylamino)ethyl]amino}phenyl)-8-ethyl-6,8,10-triazatricyclo[9.4.0.0^2,7]pentadeca-1(11),2(7),3,5,12,14-hexaen-9-one] |
| < 100 | CCN1C(=O)N(c2c(F)cc(NCCNC)cc2F)c2cc(C#N)cc(F)c2-c2cc(F)cnc21 [1-102, 10-(2,6-difluoro-4-{[2-(methylamino)ethyl]amino}phenyl)-8-ethyl-4,15-difluoro-9-oxo-6,8,10-triazatricyclo[9.4.0.0^2,7]pentadeca-1(11),2(7),3,5,12,14-hexaene-13-carbonitrile] |
| < 100 | CCN1C(=O)N(c2c(F)cc(NCCNCCO)cc2F)c2cc(Cl)cc(OC)c2-c2cc(F)cnc21 [1-88, 13-chloro-10-[2,6-difluoro-4-({2-[(2-hydroxyethyl)amino]ethyl}amino)phenyl]-8-ethyl-4-fluoro-15-methoxy-6,8,10-triazatricyclo[9.4.0.0^2,7]pentadeca-1(11),2(7),3,5,12,14-hexaen-9-one] |
| < 100 | CCN1C(=O)N(c2c(F)cc(NCCNCCCC(=O)O)cc2F)c2cc(C(F)(F)F)ccc2-c2cc(F)cnc21 [1-69, 4-{[2-({4-[8-ethyl-4-fluoro-9-oxo-13-(trifluoromethyl)-6,8,10-triazatricyclo[9.4.0.0^2,7]pentadeca-1(11),2(7),3,5,12,14-hexaen-10-yl]-3,5-difluorophenyl}amino)ethyl]amino}butanoic acid] |
| < 100 | Cc1cc(Cl)cc2c1-c1cc(F)cnc1N(C(C)C)C(=O)N2c1c(F)cc(NCCNCCO)cc1F [1-79, 13-chloro-10-[2,6-difluoro-4-({2-[(2-hydroxyethyl)amino]ethyl}amino)phenyl]-4-fluoro-15-methyl-8-(propan-2-yl)-6,8,10-triazatricyclo[9.4.0.0^2,7]pentadeca-1(11),2(7),3,5,12,14-hexaen-9-one] |
| < 100 | CCN1C(=O)N(c2c(F)cc(NCCNCCCC(=O)O)cc2F)c2cc(C#N)cc(F)c2-c2cc(Cl)cnc21 [1-101, 4-({2-[(4-{4-chloro-13-cyano-8-ethyl-15-fluoro-9-oxo-6,8,10-triazatricyclo[9.4.0.0^2,7]pentadeca-1(11),2(7),3,5,12,14-hexaen-10-yl}-3,5-difluorophenyl)amino]ethyl}amino)butanoic acid] |
| < 100 | 4-chloro-10-(2,6-difluoro-4-{[2-(methylamino)ethyl]amino}phenyl)-8-methyl-9-oxo-6,8,10-triazatricyclo[9.4.0.0^2,7]pentadeca-1(11),2(7),3,5,12,14-hexaene-13-carbonitrile [1-211] |
| < 100 | CCN1C(=O)N(c2c(F)cc(NCCNCC(=O)O)cc2F)c2cc(C#N)ccc2-c2cc(Cl)cnc21 [1-215, 2-({2-[(4-{4-chloro-13-cyano-8-ethyl-9-oxo-6,8,10-triazatricyclo[9.4.0.0^2,7]pentadeca-1(11),2(7),3,5,12,14-hexaen-10-yl}-3,5-difluorophenyl)amino]ethyl}amino)acetic acid] |
| < 100 | CCN1C(=O)N(c2c(F)cc(NCCNCCCC(=O)O)cc2F)c2cc(Cl)ccc2-c2cc(C)cnc21 [1-25, 4-({2-[(4-{13-chloro-8-ethyl-4-methyl-9-oxo-6,8,10-triazatricyclo[9.4.0.0^2,7]pentadeca-1(11),2(7),3,5,12,14-hexaen-10-yl}-3,5-difluorophenyl)amino]ethyl}amino)butanoic acid] |
| < 100 | CCN1C(=O)N(c2c(F)cc(NCCNC[C@H](O)CO)cc2F)c2cc(C#N)ccc2-c2cc(F)cnc21 [1-200, 10-{4-[(2-{[(2S)-2,3-dihydroxypropyl]amino}ethyl)amino]-2,6-difluorophenyl}-8-ethyl-4-fluoro-9-oxo-6,8,10-triazatricyclo[9.4.0.0^2,7]pentadeca-1(11),2(7),3,5,12,14-hexaene-13-carbonitrile] |
| < 100 | CN1C(=O)N(c2c(F)cc(NCCNCCO)cc2F)c2cc(C#N)ccc2-c2cc(Cl)cnc21 [1-195, 4-chloro-10-[2,6-difluoro-4-({2-[(2-hydroxyethyl)amino]ethyl}amino)phenyl]-8-methyl-9-oxo-6,8,10-triazatricyclo[9.4.0.0^2,7]pentadeca-1(11),2(7),3,5,12,14-hexaene-13-carbonitrile] |
| < 100 | CNCCNc1cc(F)c(N2C(=O)N(CC(F)(F)F)c3ncc(Cl)cc3-c3ccc(Cl)cc32)c(F)c1 [1-45, 4,13-dichloro-10-(2,6-difluoro-4-{[2-(methylamino)ethyl]amino}phenyl)-8-(2,2,2-trifluoroethyl)-6,8,10-triazatricyclo[9.4.0.0^2,7]pentadeca-1(11),2(7),3,5,12,14-hexaen-9-one] |
| < 100 | CCN1C(=O)N(c2c(F)cc(NCCNCCCC(=O)O)cc2F)c2cc(Cl)cc(C)c2-c2cc(F)cnc21 [1-64, 4-({2-[(4-{13-chloro-8-ethyl-4-fluoro-15-methyl-9-oxo-6,8,10-triazatricyclo[9.4.0.0^2,7]pentadeca-1(11),2(7),3,5,12,14-hexaen-10-yl}-3,5-difluorophenyl)amino]ethyl}amino)butanoic acid] |
| < 100 | CCN1C(=O)N(c2c(F)cc(NCCNC3CCOC3)cc2F)c2cc(Cl)ccc2-c2cc(Cl)cnc21 (stereo not shown) [1-13, 4,13-dichloro-10-[2,6-difluoro-4-({2-[(oxolan-3-yl)amino]ethyl}amino)phenyl]-8-ethyl-6,8,10-triazatricyclo[9.4.0.0^2,7]pentadeca-1(11),2(7),3,5,12,14-hexaen-9-one] |
| < 100 | CCN1C(=O)N(c2c(F)cc(N3CCN[C@@H](CO)C3)cc2F)c2cc(C#N)ccc2-c2cc(Cl)cnc21 [1-153, 4-chloro-10-{2,6-difluoro-4-[(3R)-3-(hydroxymethyl)piperazin-1-yl]phenyl}-8-ethyl-9-oxo-6,8,10-triazatricyclo[9.4.0.0^2,7]pentadeca-1(11),2(7),3,5,12,14-hexaene-13-carbonitrile] |
| < 100 | CCN1C(=O)N(c2c(F)cc(NCCN[C@H]3C[C@H](O)C3)cc2F)c2cc(C#N)ccc2-c2cc(C(F)(F)F)cnc21 [1-224, 10-{2,6-difluoro-4-[(2-{[(1r,3r)-3-hydroxycyclobutyl]amino}ethyl)amino]phenyl}-8-ethyl-9-oxo-4-(trifluoromethyl)-6,8,10-triazatricyclo[9.4.0.0^2,7]pentadeca-1(11),2(7),3,5,12,14-hexaene-13-carbonitrile] |
| < 100 | CCN1C(=O)N(c2c(F)cc(NCCNC3CCOC3)cc2F)c2cc(Cl)ccc2-c2cccnc21 (stereo not shown) [1-5, 13-chloro-10-[2,6-difluoro-4-({2-[(oxolan-3-yl)amino]ethyl}amino)phenyl]-8-ethyl-6,8,10-triazatricyclo[9.4.0.0^2,7]pentadeca-1(11),2(7),3,5,12,14-hexaen-9-one] |
| < 100 | CCN1C(=O)N(c2c(F)cc(NCCNCCN3CCNC3=O)cc2F)c2cc(C#N)ccc2-c2cc(Cl)cnc21 [1-228, 4-chloro-10-{2,6-difluoro-4-[(2-{[2-(2-oxoimidazolidin-1-yl)ethyl]amino}ethyl)amino]phenyl}-8-ethyl-9-oxo-6,8,10-triazatricyclo[9.4.0.0^2,7]pentadeca-1(11),2(7),3,5,12,14-hexaene-13-carbonitrile] |
| < 100 | CCN1C(=O)N(c2c(F)cc(NCCNCCO)cc2F)c2cc(F)ccc2-c2cc(Cl)cnc21 [1-129, 4-chloro-10-[2,6-difluoro-4-({2-[(2-hydroxyethyl)amino]ethyl}amino)phenyl]-8-ethyl-13-fluoro-6,8,10-triazatricyclo[9.4.0.0^2,7]pentadeca-1(11),2(7),3,5,12,14-hexaen-9-one] |
| < 100 | CCN1C(=O)N(c2c(F)cc(NCCNC)cc2F)c2cc(Cl)c(C)cc2-c2cccnc21 [3-3, 13-chloro-10-(2,6-difluoro-4-{[2-(methylamino)ethyl]amino}phenyl)-8-ethyl-14-methyl-6,8,10-triazatricyclo[9.4.0.0^2,7]pentadeca-1(11),2(7),3,5,12,14-hexaen-9-one] |
| < 100 | CCN1C(=O)N(c2c(F)cc(NCCNC[C@@H](O)CO)cc2F)c2cc(C#N)ccc2-c2cc(F)cnc21 [1-194, 10-{4-[(2-{[(2R)-2,3-dihydroxypropyl]amino}ethyl)amino]-2,6-difluorophenyl}-8-ethyl-4-fluoro-9-oxo-6,8,10-triazatricyclo[9.4.0.0^2,7]pentadeca-1(11),2(7),3,5,12,14-hexaene-13-carbonitrile] |
| < 100 | CCN1C(=O)N(c2c(F)cc(NCCNCCCC(=O)O)cc2F)c2cc(C#N)ccc2-c2cc(Cl)cnc21 [1-58, 4-({2-[(4-{4-chloro-13-cyano-8-ethyl-9-oxo-6,8,10-triazatricyclo[9.4.0.0^2,7]pentadeca-1(11),2(7),3,5,12,14-hexaen-10-yl}-3,5-difluorophenyl)amino]ethyl}amino)butanoic Acid] |
